Reference: the NIST ThermoML archive (doi:10.1021/je901043q)
Numbers after ± are expanded uncertainties.

Assay: xn = mol fraction of the nth substance listed
Conditions: 101 kPa, Liquid

CCCCn1cc[n+](C)c1.N#C[S-] [1-butyl-3-methylimidazolium thiocyanate] + CCCCCCCCO
Conditions	mass density [kg/m3]	viscosity [mPa·s]
298.15 K, x1 = 0.0874	847.17 ± 0.4	9.062 ± 0.26
298.15 K, x1 = 0.1352	860.64 ± 0.39	10.03 ± 0.28
298.15 K, x1 = 0.2208	884.32 ± 0.39	12.08 ± 0.33
298.15 K, x1 = 0.3599	921.24 ± 0.4	16.3 ± 0.44
298.15 K, x1 = 0.4693	949.07 ± 0.42	20.44 ± 0.55
298.15 K, x1 = 0.5739	974.82 ± 0.46	24.86 ± 0.67
298.15 K, x1 = 0.675	998.86 ± 0.52	29.44 ± 0.79
298.15 K, x1 = 0.7673	1020.12 ± 0.64	–
298.15 K, x1 = 0.8721	1043.42 ± 0.81	39.69 ± 1.1
298.15 K, x1 = 0.9619	1062.27 ± 0.98	45.09 ± 1.2
298.15 K, x1 = 1	1069.79 ± 1	51.74 ± 0.55
308.15 K, x1 = 0.0874	840.37 ± 0.4	6.504 ± 0.19
308.15 K, x1 = 0.1352	853.92 ± 0.39	7.237 ± 0.21
308.15 K, x1 = 0.2208	877.72 ± 0.39	8.726 ± 0.25
308.15 K, x1 = 0.3599	914.82 ± 0.4	11.7 ± 0.33
308.15 K, x1 = 0.4693	942.78 ± 0.42	14.47 ± 0.4
308.15 K, x1 = 0.5739	968.64 ± 0.46	17.39 ± 0.48
308.15 K, x1 = 0.675	992.79 ± 0.52	20.38 ± 0.56
308.15 K, x1 = 0.7673	1014.13 ± 0.63	–
308.15 K, x1 = 0.8721	1037.47 ± 0.8	26.63 ± 0.73
308.15 K, x1 = 0.9619	1056.33 ± 0.97	29.99 ± 0.83
308.15 K, x1 = 1	1063.89 ± 1	34.87 ± 0.96
318.15 K, x1 = 0.0874	833.52 ± 0.4	4.842 ± 0.15
318.15 K, x1 = 0.1352	847.19 ± 0.39	5.396 ± 0.17
318.15 K, x1 = 0.2208	871.11 ± 0.39	6.516 ± 0.19
318.15 K, x1 = 0.3599	908.42 ± 0.4	8.719 ± 0.25
318.15 K, x1 = 0.4693	936.52 ± 0.42	10.67 ± 0.3
318.15 K, x1 = 0.5739	962.5 ± 0.46	12.72 ± 0.36
318.15 K, x1 = 0.675	986.77 ± 0.52	14.79 ± 0.41
318.15 K, x1 = 0.7673	1008.17 ± 0.62	–
318.15 K, x1 = 0.8721	1031.58 ± 0.79	18.95 ± 0.53
318.15 K, x1 = 0.9619	1050.45 ± 0.95	21.14 ± 0.59
318.15 K, x1 = 1	1058.02 ± 1	24.19 ± 0.68
328.15 K, x1 = 0.0874	826.65 ± 0.41	3.691 ± 0.12
328.15 K, x1 = 0.1352	840.37 ± 0.4	4.158 ± 0.14
328.15 K, x1 = 0.2208	864.48 ± 0.39	5.003 ± 0.16
328.15 K, x1 = 0.3599	902.01 ± 0.41	6.654 ± 0.2
328.15 K, x1 = 0.4693	930.28 ± 0.43	8.141 ± 0.24
328.15 K, x1 = 0.5739	956.41 ± 0.46	9.644 ± 0.28
328.15 K, x1 = 0.675	980.77 ± 0.52	11.14 ± 0.32
328.15 K, x1 = 0.7673	1002.28 ± 0.61	–
328.15 K, x1 = 0.8721	1025.72 ± 0.77	14.06 ± 0.4
328.15 K, x1 = 0.9619	1044.62 ± 0.94	15.59 ± 0.44
328.15 K, x1 = 1	1052.19 ± 1	16.7 ± 0.48
338.15 K, x1 = 0.0874	819.63 ± 0.41	2.884 ± 0.1
338.15 K, x1 = 0.1352	833.53 ± 0.4	3.272 ± 0.11
338.15 K, x1 = 0.2208	857.82 ± 0.4	3.928 ± 0.13
338.15 K, x1 = 0.3599	895.62 ± 0.41	5.233 ± 0.16
338.15 K, x1 = 0.4693	924.05 ± 0.43	6.379 ± 0.19
338.15 K, x1 = 0.5739	950.33 ± 0.47	7.509 ± 0.22
338.15 K, x1 = 0.675	974.82 ± 0.52	8.648 ± 0.25
338.15 K, x1 = 0.7673	996.4 ± 0.61	–
338.15 K, x1 = 0.8721	1019.88 ± 0.76	10.82 ± 0.31
338.15 K, x1 = 0.9619	1038.82 ± 0.93	11.94 ± 0.35
338.15 K, x1 = 1	1046.43 ± 0.98	12.73 ± 0.37
348.15 K, x1 = 0.0874	812.55 ± 0.42	2.306 ± 0.088
348.15 K, x1 = 0.1352	826.58 ± 0.41	2.633 ± 0.097
348.15 K, x1 = 0.2208	851.13 ± 0.4	3.171 ± 0.11
348.15 K, x1 = 0.3599	889.21 ± 0.41	4.233 ± 0.14
348.15 K, x1 = 0.4693	917.85 ± 0.43	5.1 ± 0.16
348.15 K, x1 = 0.5739	944.27 ± 0.47	5.987 ± 0.18
348.15 K, x1 = 0.675	968.89 ± 0.52	6.874 ± 0.21
348.15 K, x1 = 0.7673	990.57 ± 0.61	–
348.15 K, x1 = 0.8721	1014.14 ± 0.75	8.592 ± 0.26
348.15 K, x1 = 0.9619	1033.09 ± 0.91	9.462 ± 0.28
348.15 K, x1 = 1	1040.7 ± 0.97	9.98 ± 0.3
